PubChem BioAssay AID1919008 (Molecular Pharmacology Branch, DTP, NCI, 2023)

Tested on: DMS-114 complex spheroids with HUVEC/MSC, growth % test/control
Test: Anticancer human tumor DMS-114 cell line growth inhibition [AhR];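 also: spheroids exposed to agents for 7 days before readout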;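 as to viability, T/C: 100% = DMSO vehicle control wells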
Settings: for IC50: curve of first compound; for viability, T/C: stronger effect = lower value; active = viability on the fitted dose curve at most 10% of control; inactive = the rest
Procedure, shortened: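 Spheroids combined tumor cells with HUVEC endothelial cells and human MSCs as stroma. AhR antagonists were paired with standard or investigational drugs, each dosed in half-log steps down from near clinical Cmax, or from 10 microM where Cmax was unknown.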

[1] = second compound 0.1 µM, first compound 0.0316 µM
[2] = second compound 0.1 µM, first compound 0.1 µM
[3] = second compound 0.316 µM, first compound 0.0316 µM
[4] = second compound 0.316 µM, first compound 0.1 µM
[5] = second compound 1 µM, first compound 0.0316 µM
[6] = second compound 1 µM, first compound 0.1 µM
[7] = second compound 3.16 µM, first compound 0.0316 µM
[8] = second compound 3.16 µM, first compound 0.1 µM
[9] = second compound 10 µM, first compound 0.0316 µM
[10] = second compound 10 µM, first compound 0.1 µM
[11] = second compound 0.1 µM, first compound 0.316 µM
[12] = second compound 0.1 µM, first compound 1 µM
[13] = second compound 0.1 µM, first compound 3.16 µM
[14] = second compound 0.1 µM, first compound 10 µM
[15] = second compound 0.316 µM, first compound 0.316 µM
[16] = second compound 0.316 µM, first compound 1 µM
[17] = second compound 0.316 µM, first compound 3.16 µM
[18] = second compound 0.316 µM, first compound 10 µM
[19] = second compound 1 µM, first compound 0.316 µM
[20] = second compound 1 µM, first compound 1 µM
[21] = second compound 1 µM, first compound 3.16 µM
[22] = second compound 1 µM, first compound 10 µM
[23] = second compound 3.16 µM, first compound 0.316 µM
[24] = second compound 3.16 µM, first compound 1 µM
[25] = second compound 3.16 µM, first compound 3.16 µM
[26] = second compound 3.16 µM, first compound 10 µM
[27] = second compound 10 µM, first compound 0.316 µM
[28] = second compound 10 µM, first compound 1 µM
[29] = second compound 10 µM, first compound 3.16 µM
[30] = second compound 10 µM, first compound 10 µM

CC[C@@]1(O)C(=O)OCc2c1cc1n(c2=O)Cc2cc3c(CN(C)C)c(O)ccc3nc2-1 + Cc1ccccc1N=Nc1ccc(NC(=O)c2ccnn2C)c(C)c1
74.1 nM: IC50 (second compound 3.16 µM)
61.1 nM: IC50 (second compound 0.1 µM)
65.1 nM: IC50 (second compound 0.316 µM)
71.2 nM: IC50 (second compound 1 µM)
inactive: viability, T/C (second compound 0.1 µM, first compound 0.000316 µM) 99.3% | viability, T/C (second compound 0.1 µM, first compound 0.001 µM) 102% | viability, T/C (second compound 0.1 µM, first compound 0.00316 µM) 97.8% | viability, T/C (second compound 0.1 µM, first compound 0.01 µM) 88.6% | viability, T/C [1] 66.2% | viability, T/C [2] 38% | viability, T/C (second compound 0.316 µM, first compound 0.000316 µM) 95% | viability, T/C (second compound 0.316 µM, first compound 0.001 µM) 106% | viability, T/C (second compound 0.316 µM, first compound 0.00316 µM) 100% | viability, T/C (second compound 0.316 µM, first compound 0.01 µM) 102% | viability, T/C [3] 61.7% | viability, T/C [4] 43% | viability, T/C (second compound 1 µM, first compound 0.000316 µM) 99.2% | viability, T/C (second compound 1 µM, first compound 0.001 µM) 92.3% | viability, T/C (second compound 1 µM, first compound 0.00316 µM) 99.6% | viability, T/C (second compound 1 µM, first compound 0.01 µM) 94% | viability, T/C [5] 65% | viability, T/C [6] 43.7% | viability, T/C (second compound 3.16 µM, first compound 0.000316 µM) 89.2% | viability, T/C (second compound 3.16 µM, first compound 0.001 µM) 92.1% | viability, T/C (second compound 3.16 µM, first compound 0.00316 µM) 93.2% | viability, T/C (second compound 3.16 µM, first compound 0.01 µM) 83.4% | viability, T/C [7] 68.5% | viability, T/C [8] 43.5% | viability, T/C (second compound 10 µM, first compound 0.000316 µM) 91.8% | viability, T/C (second compound 10 µM, first compound 0.001 µM) 92.2% | viability, T/C (second compound 10 µM, first compound 0.00316 µM) 92.1% | viability, T/C (second compound 10 µM, first compound 0.01 µM) 87.6% | viability, T/C [9] 58% | viability, T/C [10] 44.1%
61.2 nM: IC50 (second compound 10 µM)

CCc1c2c(nc3ccc(O)cc13)-c1cc3c(c(=O)n1C2)COC(=O)[C@]3(O)CC + Cc1ccccc1N=Nc1ccc(NC(=O)c2ccnn2C)c(C)c1
inactive: viability, T/C (second compound 0.1 µM, first compound 0.000949 µM) 98.3% | viability, T/C (second compound 0.1 µM, first compound 0.003 µM) 97.7% | viability, T/C (second compound 0.1 µM, first compound 0.00949 µM) 48% | viability, T/C (second compound 0.1 µM, first compound 0.03 µM) 35.2% | viability, T/C (second compound 0.1 µM, first compound 0.0949 µM) 38.4% | viability, T/C (second compound 0.1 µM, first compound 0.3 µM) 37.7% | viability, T/C (second compound 0.316 µM, first compound 0.000949 µM) 103% | viability, T/C (second compound 0.316 µM, first compound 0.003 µM) 80.9% | viability, T/C (second compound 0.316 µM, first compound 0.00949 µM) 47% | viability, T/C (second compound 0.316 µM, first compound 0.03 µM) 30.5% | viability, T/C (second compound 0.316 µM, first compound 0.0949 µM) 32.5% | viability, T/C (second compound 0.316 µM, first compound 0.3 µM) 32.3% | viability, T/C (second compound 1 µM, first compound 0.000949 µM) 94% | viability, T/C (second compound 1 µM, first compound 0.003 µM) 90.9% | viability, T/C (second compound 1 µM, first compound 0.00949 µM) 50.5% | viability, T/C (second compound 1 µM, first compound 0.03 µM) 36.4% | viability, T/C (second compound 1 µM, first compound 0.0949 µM) 36.3% | viability, T/C (second compound 1 µM, first compound 0.3 µM) 40.6% | viability, T/C (second compound 3.16 µM, first compound 0.000949 µM) 93.2% | viability, T/C (second compound 3.16 µM, first compound 0.003 µM) 79.1% | viability, T/C (second compound 3.16 µM, first compound 0.00949 µM) 52.5% | viability, T/C (second compound 3.16 µM, first compound 0.03 µM) 35.6% | viability, T/C (second compound 3.16 µM, first compound 0.0949 µM) 39.8% | viability, T/C (second compound 3.16 µM, first compound 0.3 µM) 41.4% | viability, T/C (second compound 10 µM, first compound 0.000949 µM) 83.1% | viability, T/C (second compound 10 µM, first compound 0.003 µM) 82.2% | viability, T/C (second compound 10 µM, first compound 0.00949 µM) 53.7% | viability, T/C (second compound 10 µM, first compound 0.03 µM) 40.4% | viability, T/C (second compound 10 µM, first compound 0.0949 µM) 40.5% | viability, T/C (second compound 10 µM, first compound 0.3 µM) 43.5%
9.05 nM: IC50 (second compound 0.1 µM)
8.31 nM: IC50 (second compound 0.316 µM)
13.4 nM: IC50 (second compound 10 µM)
9.91 nM: IC50 (second compound 1 µM)
10.5 nM: IC50 (second compound 3.16 µM)

Nc1ccccc1NC(=O)c1ccc(CNC(=O)OCc2cccnc2)cc1 + Cc1ccccc1N=Nc1ccc(NC(=O)c2ccnn2C)c(C)c1
2220 nM: IC50 (second compound 0.1 µM)
2410 nM: IC50 (second compound 0.316 µM) | IC50 (second compound 10 µM)
2340 nM: IC50 (second compound 1 µM)
2460 nM: IC50 (second compound 3.16 µM)
inactive: viability, T/C [1] 91.5% | viability, T/C [2] 102% | viability, T/C [11] 91.5% | viability, T/C [12] 72.9% | viability, T/C [13] 40.1% | viability, T/C [14] 23.3% | viability, T/C [3] 95.7% | viability, T/C [4] 102% | viability, T/C [15] 94.8% | viability, T/C [16] 72.5% | viability, T/C [17] 43.7% | viability, T/C [18] 23.1% | viability, T/C [5] 91.8% | viability, T/C [6] 95.9% | viability, T/C [19] 90% | viability, T/C [20] 73.4% | viability, T/C [21] 41.8% | viability, T/C [22] 25.1% | viability, T/C [7] 98.6% | viability, T/C [8] 88.7% | viability, T/C [23] 84.5% | viability, T/C [24] 68.8% | viability, T/C [25] 43.9% | viability, T/C [26] 23.5% | viability, T/C [9] 91.6% | viability, T/C [10] 87.3% | viability, T/C [27] 85.5% | viability, T/C [28] 72.8% | viability, T/C [29] 42.9% | viability, T/C [30] 26.1%

Nc1ccn(C2OC(CO)C(O)C2(F)F)c(=O)n1 (stereo not given) + Cc1ccccc1N=Nc1ccc(NC(=O)c2ccnn2C)c(C)c1
inactive: viability, T/C [1] 21.8% | viability, T/C [2] 23.8% | viability, T/C [11] 25.1% | viability, T/C [12] 23.9% | viability, T/C [13] 25.7% | viability, T/C [14] 25.5% | viability, T/C [3] 25.6% | viability, T/C [4] 28.2% | viability, T/C [15] 26.3% | viability, T/C [16] 23% | viability, T/C [17] 23.2% | viability, T/C [18] 24.2% | viability, T/C [5] 25.5% | viability, T/C [6] 24.6% | viability, T/C [19] 26.5% | viability, T/C [20] 23.7% | viability, T/C [21] 26.4% | viability, T/C [22] 25.7% | viability, T/C [7] 25.4% | viability, T/C [8] 27.7% | viability, T/C [23] 28.3% | viability, T/C [24] 24.9% | viability, T/C [25] 26.8% | viability, T/C [26] 28.5% | viability, T/C [9] 29.2% | viability, T/C [10] 32.7% | viability, T/C [27] 29.4% | viability, T/C [28] 31.7% | viability, T/C [29] 31.7% | viability, T/C [30] 30%
< 31.6 nM: IC50 (second compound 0.1 µM) | IC50 (second compound 0.316 µM) | IC50 (second compound 1 µM) | IC50 (second compound 3.16 µM) | IC50 (second compound 10 µM)

O=C(c1cc(Cc2n[nH]c(=O)c3ccccc23)ccc1F)N1CCN(C(=O)C2CC2)CC1 + Cc1ccccc1N=Nc1ccc(NC(=O)c2ccnn2C)c(C)c1
> 10000 nM: IC50 (second compound 0.1 µM) | IC50 (second compound 0.316 µM) | IC50 (second compound 1 µM) | IC50 (second compound 3.16 µM) | IC50 (second compound 10 µM)
inactive: viability, T/C [1] 109% | viability, T/C [2] 107% | viability, T/C [11] 103% | viability, T/C [12] 111% | viability, T/C [13] 110% | viability, T/C [14] 97.5% | viability, T/C [3] 122% | viability, T/C [4] 109% | viability, T/C [15] 112% | viability, T/C [16] 105% | viability, T/C [17] 97.9% | viability, T/C [18] 94.7% | viability, T/C [5] 113% | viability, T/C [6] 95.8% | viability, T/C [19] 111% | viability, T/C [20] 105% | viability, T/C [21] 102% | viability, T/C [22] 105% | viability, T/C [7] 105% | viability, T/C [8] 111% | viability, T/C [23] 94.7% | viability, T/C [24] 102% | viability, T/C [25] 94.2% | viability, T/C [26] 103% | viability, T/C [9] 87.2% | viability, T/C [10] 103% | viability, T/C [27] 87.2% | viability, T/C [28] 91.2% | viability, T/C [29] 88.3% | viability, T/C [30] 81%
